The text below walks through data of US10941143B2, “Imidazo [1,5-a]pyridine compounds and their use” (Alterity Therapeutics Limited, priority 2019, dated 2021).

The assay deals with human neuroblastoma line BE(2)-M17 (M17) cells. Nature of the assay: Measurement of Fe efflux from cells. Type of assay: cell-based. Conditions: M17 cells pre-loaded with 57Fe, compound 20 μM for 2 h, percentage increase of Fe in media relative to media without compound, read-out: % Fe Efflux Range. Here is the method: Method I: Measurement of Fe Efflux from Cells
Compounds of the current invention were assessed for their ability to efflux iron (Fe) from a cell using the following protocol.
The human neuroblastoma line BE(2)-M17 (M17) cell cultures were acquired from Sigma Aldrich (Catalogue #: 95011816). M17 Cells were maintained in Opti-MEM reduced serum media supplemented with 10% fetal bovine serum (Bovogen, SFBSF) and passaged twice weekly. Cells were cultured at 37° C. in the presence of 5% CO2. Culture supplies were sourced from Thermo Fisher unless otherwise stated.
A solution of ^57Fe cold isotope was prepared by dissolving ^57Fe metal (>95% enrichment, Trace Sciences International) in concentrated HCl to give a final concentration of 573 mM. From this master solution, a 10 mM working solution was prepared in sterile water. The working solution was used within two months of preparation.
M17 cells were loaded with iron initially by seeding into 48-well plates at a density of 0.15×10^6 cells per well in 0.5 mL media. After 48 h, old media was discarded. Fresh media was supplemented with 20 μM ^57Fe isotope, from the 10 mM ^57Fe working solution. Cells received 0.2 mL of this ^57Fe enriched media and were returned to the incubator for 20 h. The ability of experimental compounds to efflux iron was determined by the dissolution of compounds in DMSO and diluted in Hanks' Balanced Salt Solution (HBSS) for treatment of M17 cells. After ^57Fe incubation, cells were rinsed twice with HBSS and treated with 0.15 mL trial compound for 2 h at a concentration of 20 μM. All assays included a relevant vehicle (0.4%-0.8% DMSO) as well as a positive control (20 μM). Following the treatment period, 0.1 mL of media was collected from cells and the extracellular ^57Fe content was analysed via inductively coupled mass spectrometry (ICP-MS, Agilent 7700x series instrument).
To perform this protocol the following supplies were purchased from Sigma Aldrich: anhydrous dimethyl sulfoxide (DMSO, Catalogue #: 276855), Hanks' Balanced Salt Solution supplemented with 20 mM HEPES and 4.2 mM Sodium Bicarbonate (HBSS, pH: 7.4, Catalogue #: H1387).
After 2 h the Fe levels in the media were measured and the increase determined as a percentage increase relative to the cell media in the absence of the compound.
For `Oc1cnccc1-c1nc(-c2ccccc2O)n2ccncc12` [Compound 174], the activation at 20 µM is greater than 150%.

For the compound `Oc1cccc(Cl)c1-c1nc(-c2cccc(Br)c2O)c2ccccn12` [Compound 35], the activation at 20 µM was less than 30%.

Consider `Oc1cccnc1-c1nc(-c2ccc(Cl)cc2)n2ccccc12` [Compound 127], for which the activation at 20 µM was less than 30%.

Turning to `Oc1cnccc1-c1nc(-c2cc(F)cc(F)c2O)n2ccccc12` [Compound 114, 4-(3-(3,5-Difluoro-2-hydroxyphenyl)imidazo[1,5-a]pyridin-1-yl)pyridin-3-ol], the activation at 20 µM is 100 to 150%.

Take `Oc1ccccc1-c1nc(-c2ccccc2O)n2ncccc12` [Compound 102, 2,2′-(Imidazo[1,5-b]pyridazine-5,7-diyl)diphenol]: the activation at 20 µM was less than 30%.

For the compound `COc1ccncc1-c1nc(-c2cccc(F)c2O)n2ccccc12` [Compound 157], the activation at 20 µM was less than 30%.

On to `Cc1ccc(O)c(-c2nc(-c3cnccc3O)c3ccccn23)c1` [Compound 169], for which the activation at 20 µM lay within 30 to 100%.

As to `Oc1c(F)cccc1-c1nc(-c2cccc(Br)c2O)c2ccccn12` [Compound 31], the activation at 20 µM was less than 30%.

Take `Oc1c(F)cc(F)cc1-c1nc(-c2cccc(Br)c2O)c2ccccn12` [Compound 33]: the activation at 20 µM is less than 30%.

Take `Oc1cccnc1-c1nc(-c2cc(F)cc(F)c2O)n2ccccc12` [Compound 84, 2-(3-(3,5-Difluoro-2-hydroxyphenyl)imidazo[1,5-a]pyridin-1-yl)pyridin-3-ol]: the activation at 20 µM is greater than 150%.

With `Oc1c(F)cccc1-c1nc(-c2cccc(Cl)c2O)n2ccccc12` [Compound 41, 2-Chloro-6-(1-(3-fluoro-2-hydroxyphenyl)imidazo[1,5-a]pyridin-3-yl)phenol], the activation at 20 µM lay within 30 to 100%.

Take `Oc1cccnc1-c1nc(-c2c(O)cccc2F)n2ccccc12` [Compound 79]: the activation at 20 µM was in the range of 100 to 150%.

Turning to `Oc1ccc(Cl)cc1-c1nc(-c2cccnc2O)c2ccccn12` [Compound 149], the activation at 20 µM was in the range of 30 to 100%.

Regarding `COc1ccccc1-c1nc(-c2ccc(Cl)cc2O)n2ccc(C)cc12` [Compound 100, 5-Chloro-2-(1-(2-methoxyphenyl)-7-methylimidazo[1,5-a]pyridin-3-yl)phenol], the activation at 20 µM was less than 30%.

Consider `Oc1ccncc1-c1nc(-c2c(O)cccc2F)n2ccccc12` [Compound 161], for which the activation at 20 µM lay within 30 to 100%.

As to `Cc1ccc(O)c(-c2nc(-c3ccncc3O)c3cnccn23)c1` [Compound 180], the activation at 20 µM is greater than 150%.

As to `COC(=O)c1ccccc1-c1nc(-c2ccccc2O)c2ccccn12` [Compound 20], the activation at 20 µM was less than 30%.

On to `Oc1ccccc1-c1nc(-c2cc(Cl)cc(Cl)c2O)n2ccccc12` [Compound 7], for which the activation at 20 µM was less than 30%.

As to `Oc1cc(F)c(Br)cc1-c1nc(-c2c(O)cccc2Cl)n2ccccc12` [Compound 46], the activation at 20 µM is less than 30%.

Turning to `Cc1cccc(-c2nc(-c3ccccc3O)c3ncccn23)c1O` [Compound 108], the activation at 20 µM was less than 30%.

On to `Oc1ccccc1-c1nc(-c2ccccc2O)n2cccnc12` [Compound 107, 2,2′-(Imidazo[1,5-a]pyrimidine-6,8-diyl)diphenol], for which the activation at 20 µM is 30 to 100%.

As to `Oc1cccnc1-c1nc(-c2c(O)cccc2Cl)n2ccccc12` [Compound 80], the activation at 20 µM is 30 to 100%.

As for `Oc1ccc(F)cc1-c1nc(-c2cccnc2O)c2ccccn12` [Compound 144, 3-(3-(5-Fluoro-2-hydroxyphenyl)imidazo[1,5-a]pyridin-1-yl)pyridin-2-ol], the activation at 20 µM fell in the range of 100 to 150%.

As for `COc1cccnc1-c1nc(-c2c(O)cccc2F)n2ccccc12` [Compound 52], the activation at 20 µM was less than 30%.

With `Oc1cc(F)c(Br)cc1-c1nc(-c2cccc(F)c2O)n2ccccc12` [Compound 44], the activation at 20 µM lay within 30 to 100%.

Take `Cc1cccc(-c2nc(-c3ccncc3O)c3cnccn23)c1O` [Compound 177]: the activation at 20 µM was greater than 150%.

`COc1cccnc1-c1nc(-c2cc(Cl)cc(Cl)c2O)n2ccccc12` [Compound 59]: the activation at 20 µM is less than 30%.

With `COc1ccncc1-c1nc(-c2cccc(C)c2O)n2ccccc12` [Compound 163], the activation at 20 µM is less than 30%.

Consider `Oc1cc(C(F)(F)F)ccc1-c1nc(-c2cccc(F)c2O)n2ccccc12` [Compound 98, 2-(3-(3-Fluoro-2-hydroxyphenyl)imidazo[1,5-a]pyridin-1-yl)-5-(trifluoromethyl)phenol], for which the activation at 20 µM is less than 30%.

`Oc1ccncc1-c1nc(-c2cccc(Cl)c2O)n2ccccc12` [Compound 171]: the activation at 20 µM lay within 30 to 100%.

For `Oc1ccncc1-c1nc(-c2cccc(F)c2O)n2ccccc12` [Compound 162], the activation at 20 µM lay in the range of 30 to 100%.

In the case of `Oc1cccc(F)c1-c1nc(-c2cccc(Br)c2O)c2ccccn12` [Compound 34], the activation at 20 µM lay within 30 to 100%.

Take `COc1cccnc1-c1nc(-c2ccccc2O)n2ccccc12` [Compound 3, 2-(1-(3-Methoxypyridin-2-yl)imidazo[1,5-a]pyridin-3-yl)phenol]: the activation at 20 µM lay in the range of 30 to 100%.

Take `Oc1cccc(F)c1-c1nc(-c2cccc(F)c2O)c2ccccn12` [Compound 38]: the activation at 20 µM lay in the range of 30 to 100%.

Regarding `Cc1ccc(O)c(-c2nc(-c3ccccc3O)c3ccccn23)c1` [Compound 17], the activation at 20 µM is less than 30%.

As for `Oc1cc(F)ccc1-c1nc(-c2cccc(Cl)c2O)n2ccccc12` [Compound 63], the activation at 20 µM is less than 30%.

Turning to `Cc1ccc(O)c(-c2nc(-c3ncccc3O)c3ccccn23)c1` [Compound 94], the activation at 20 µM lay in the range of 30 to 100%.

Regarding `Oc1cnccc1-c1nc(-c2ccccc2O)n2ncccc12` [Compound 181], the activation at 20 µM was in the range of 100 to 150%.

With `Oc1ccncc1-c1nc(-c2cc(F)cc(F)c2O)n2ccccc12` [Compound 160], the activation at 20 µM was in the range of 30 to 100%.

For the compound `COc1cnccc1-c1nc(-c2ccccc2O)c2ccccn12` [Compound 125], the activation at 20 µM is less than 30%.

In the case of `Oc1cccnc1-c1nc(-c2cccc(Cl)c2O)n2ncccc12` [Compound 122], the activation at 20 µM was greater than 150%.

Turning to `CN(C)Cc1cccc(-c2nc(-c3cccnc3O)c3ccccn23)c1O` [Compound 168], the activation at 20 µM was less than 30%.

Regarding `Oc1ccc(F)cc1-c1nc(-c2ncccc2O)c2ccccn12` [Compound 83], the activation at 20 µM lay within 100 to 150%.

As for `Oc1ccccc1-c1nc(-c2cccc(Cl)c2O)n2ncccc12` [Compound 104], the activation at 20 µM is less than 30%.

In the case of `Oc1c(F)cccc1-c1nc(-c2cccc(F)c2O)n2ccccc12` [Compound 40], the activation at 20 µM was 30 to 100%.

As for `Oc1cc(Cl)ccc1-c1nc(-c2cccnc2O)c2ccccn12` [Compound 143], the activation at 20 µM was less than 30%.

Consider `Oc1ccccc1-c1nc(-c2cc(F)cc(F)c2O)n2ccccc12` [Compound 23], for which the activation at 20 µM is less than 30%.
